Columns and labels:
[1] = biological target: T1, Nuclear receptor ROR-gamma (Homo sapiens, UniProt P51449); assay: Inverse agonist activity at N-terminal 6xHis-tagged human RORc ligand binding domain (241 to 486) expressed in bacterial expression system assessed as inhibition of SRC1 co-activator peptide recruitment after 3 hrs by TR-FRET analysis; assay type: functional
T1 sequence (P51449 whole entry): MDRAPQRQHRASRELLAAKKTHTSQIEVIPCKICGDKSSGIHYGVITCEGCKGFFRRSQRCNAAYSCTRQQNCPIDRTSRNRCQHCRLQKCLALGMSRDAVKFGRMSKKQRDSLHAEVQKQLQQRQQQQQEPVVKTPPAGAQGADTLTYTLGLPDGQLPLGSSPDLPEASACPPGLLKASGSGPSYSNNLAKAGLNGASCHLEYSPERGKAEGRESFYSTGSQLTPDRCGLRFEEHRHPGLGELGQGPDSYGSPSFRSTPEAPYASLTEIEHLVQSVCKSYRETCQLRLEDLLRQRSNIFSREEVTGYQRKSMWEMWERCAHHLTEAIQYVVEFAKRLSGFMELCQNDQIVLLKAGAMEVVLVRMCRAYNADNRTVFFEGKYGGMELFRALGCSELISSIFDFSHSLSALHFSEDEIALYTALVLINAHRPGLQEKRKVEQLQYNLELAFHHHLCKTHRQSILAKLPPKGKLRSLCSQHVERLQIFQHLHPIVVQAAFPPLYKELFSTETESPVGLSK

[2] = biological target: T2, Nuclear receptor ROR-gamma (Homo sapiens) (UniProt P51449); assay: Inverse agonist activity at N-terminal 6xHis-tagged human RORc ligand binding domain (241 to 486) expressed in bacterial expression system assessed as inhibition of SRC1 co-activator peptide recruitment after 3 hrs by TR-FRET analysis relative to apo-RORc ligand binding domain
T2 sequence (whole entry): T1 sequence (P51449 whole entry)

[3] = biological target: T1, Nuclear receptor ROR-gamma; assay: Displacement of [3H2]-25-hydroxycholesterol from N-terminal 6xHis-tagged human RORc ligand binding domain (241 to 486) expressed in bacterial expression system after 3 hrs by scintillation counting analysis

Row | Structure (SMILES) | EC50 [1] [nM] | Efficacy [2] [%] | IC50 [3] [nM]
1 | O=C(Nc1ccc2c(c1)CCN2S(=O)(=O)c1ccc(F)cc1)c1c(F)cccc1F | > 10000 |  | 
2 | CC(=O)Nc1ccc2c(c1)N(S(=O)(=O)c1ccc(F)cc1)CCC2 | > 10000 |  | 
3 | O=C(Nc1ccc2c(c1)N(S(=O)(=O)c1ccc(F)cc1)CCC2)c1ccno1 | 7400 | -54 | 
4 | O=C(Nc1ccc2c(c1)N(S(=O)(=O)c1ccc(F)cc1)CCC2)c1cnccn1 | > 10000 |  | 
5 | O=C(Nc1ccc2c(c1)N(S(=O)(=O)c1ccc(F)cc1)CCC2)c1ccc(F)cc1 | 1700 | -75 | 
6 | O=C(Nc1ccc2c(c1)CCCN2S(=O)(=O)c1ccc(F)cc1)c1c(F)cccc1F | > 10000 |  | 
7 | O=C(Nc1ccc2c(c1)N(S(=O)(=O)c1ccc(F)cc1)CCC2)C1CC1 | 3600 | -63 | 
8 | O=C(Nc1ccc2c(c1)N(S(=O)(=O)c1cccs1)CCC2)c1c(F)cccc1F | 2100 | -77 | 1100
9 | O=C(Nc1ccc2c(c1)N(C(=O)c1ccccc1)CCC2)c1c(F)cccc1F | > 10000 |  | 
10 | O=C(Nc1ccc2c(c1)N(S(=O)(=O)c1ccc(F)cc1)CCC2)c1ccncc1 | 6800 | -58 | 
11 | CS(=O)(=O)N1CCCc2ccc(NC(=O)c3c(F)cccc3F)cc21 | > 10000 |  | 
12 | O=S(=O)(Nc1ccc2c(c1)N(S(=O)(=O)c1ccc(F)cc1)CCC2)c1ccccc1 | 570 | -77 | 
13 | O=C(Nc1ccc2c(c1)CCCCN2S(=O)(=O)c1ccc(F)cc1)c1c(F)cccc1F | > 10000 |  | 

The next compounds have a lower EC50 [1] than those just listed; values first:

Row | EC50 [1] [nM] | Efficacy [2] [%] | IC50 [3] [nM] | Structure (SMILES)
14 | 470 | -69 |  | O=C(Nc1ccc2c(c1)N(S(=O)(=O)c1ccc(F)cc1)CCC2)c1cccc(F)c1
15 | 120 | -80 |  | Cc1ccccc1C(=O)Nc1ccc2c(c1)N(S(=O)(=O)c1ccc(F)cc1)CCC2
16 | 420 | -81 |  | O=C(Nc1ccc2c(c1)N(S(=O)(=O)c1ccc(F)cc1)CCC2)c1ccccc1F
17 | 550 | -89 |  | O=C(Nc1ccc2c(c1)N(S(=O)(=O)c1ccc(F)cc1)CCC2)c1ccccc1
18 | 230 | -96 |  | O=C(Nc1ccc2c(c1)N(S(=O)(=O)c1ccc(F)cc1)CCCC2)c1c(F)cccc1F
19 | 230 | -91 | 180 | O=C(Nc1ccc2c(c1)N(S(=O)(=O)c1ccccc1)CCC2)c1c(F)cccc1F
20 | 150 | -95 | 110 | Cc1ccc(S(=O)(=O)N2CCCc3ccc(NC(=O)c4c(F)cccc4F)cc32)cc1

— ChEMBL document CHEMBL3616373, “Identification of N-sulfonyl-tetrahydroquinolines as RORc inverse agonists” (Bioorg Med Chem Lett, 2015)
